{"source": "patent US5723299A", "about": "“Somatostatin receptors” (Arch Development Corporation, priority 1995, dated 1998)", "key": {"[1]": {"target": "T1, hGPR81 (SSTR1) (Homo sapiens, UniProt P30872)", "T1 construct": "in vitro transcribed RNA injected into Xenopus laevis oocytes", "T1 sequence (P30872 whole entry)": "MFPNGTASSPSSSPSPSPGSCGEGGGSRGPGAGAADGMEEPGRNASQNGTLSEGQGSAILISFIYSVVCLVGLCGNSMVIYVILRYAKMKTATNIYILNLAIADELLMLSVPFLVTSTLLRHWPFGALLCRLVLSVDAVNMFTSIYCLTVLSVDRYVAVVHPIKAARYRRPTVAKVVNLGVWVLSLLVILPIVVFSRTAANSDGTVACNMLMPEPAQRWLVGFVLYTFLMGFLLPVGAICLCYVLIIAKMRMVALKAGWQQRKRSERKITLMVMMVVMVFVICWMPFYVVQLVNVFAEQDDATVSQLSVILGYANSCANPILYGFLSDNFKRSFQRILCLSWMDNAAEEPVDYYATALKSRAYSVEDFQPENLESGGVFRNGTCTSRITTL", "assay": "Changes in basal or stimulated cAMP levels in oocytes injected with hGPR81 RNA", "type": "cell-based", "conditions": "laevis oocytes injected with in vitro transcribed RNA", "experimental": "(§1) Since the presence of a short cytoplasmic loop connecting transmembrane segments M5-M6 is a feature of G protein-coupled receptors that bind peptide hormones and neuropeptides (E. M. Ross, 1990), peptides known to regulate hormone secretion from pancreatic islets were tested as ligands for hGPR81. Initial attempts to identify the ligand for hGPR81 by injecting RNA transcribed in vitro into fenopus laevis oocytes (Kayano et al., 1990) and assessing changes in basal or stimulated cAMP levels in response to […] [calcitonin-gene-related peptide, gastric inhibitory polypeptide, glucagon, glucagon-like peptide 1-(7-36 amide), and vasoactive intestinal peptide], or Ca^2+ efflux (Williams et al., 1988) (angiotensin II, bombesin, cholecystokinin, and vasopressin) were unsuccessful. The binding of radiolabeled peptides (galanin, glucagon and somatostatin) to COS-7 cells transiently expressing hGPR81 was attempted, as well."}, "[2]": {"target": "T1, hGPR81 (SSTR1)", "assay": "Ca^2+ efflux in oocytes injected with hGPR81 RNA", "type": "cell-based", "conditions": "laevis oocytes injected with in vitro transcribed RNA", "experimental": "as §1"}, "[3]": {"system": "58 to 60-kDa somatostatin receptor protein", "conditions": "background; rat brain and AtT-20 cells; cited from earlier work"}, "[4]": {"system": "somatostatin receptor proteins (58-kDa, 42-kDa, 27-kDa)", "conditions": "background; AtT-20 and GH3 cells; cited from earlier work"}, "[5]": {"system": "growth hormone, insulin, glucagon, gastric acid and pancreatic exocrine secretion", "conditions": "background, Brazeau et al., 1973, Wass, 1989, cited from earlier work"}}, "note": "Where two headings read alike, the source gives them in different places."}
{"compound": "gastric inhibitory polypeptide: peptide known to regulate hormone secretion from pancreatic islets", "values": [{"measurement": "identification as ligand for hGPR81 by changes in basal or stimulated cAMP levels", "setting": "[1]", "result": "unsuccessful"}]}
{"compound": "bombesin", "values": [{"measurement": "identification as ligand for hGPR81 by Ca^2+ efflux", "setting": "[2]", "result": "unsuccessful"}]}
{"compound": "somatostatin-14", "values": [{"measurement": "binding to 58 to 60-kDa receptor protein", "setting": "[3]", "result": "high affinity and specificity"}, {"measurement": "inhibition of labeling of somatostatin receptor proteins", "setting": "[4]", "result": "sensitive to inhibition"}, {"measurement": "inhibition of secretion", "setting": "[5]", "result": "relatively more selective for inhibition of glucagon and gastric acid secretion"}, {"measurement": "inhibition of secretion", "setting": "[5]; listed as Somatostatin", "result": "potent inhibitor of growth hormone secretion"}]}
{"compound": "glucagon: peptide known to regulate hormone secretion from pancreatic islets", "values": [{"measurement": "identification as ligand for hGPR81 by changes in basal or stimulated cAMP levels", "setting": "[1]", "result": "unsuccessful"}]}
{"compound": "vasoactive intestinal peptide: peptide known to regulate hormone secretion from pancreatic islets", "values": [{"measurement": "identification as ligand for hGPR81 by changes in basal or stimulated cAMP levels", "setting": "[1]", "result": "unsuccessful"}]}
{"compound": "calcitonin-gene-related peptide", "values": [{"measurement": "identification as ligand for hGPR81 by changes in basal or stimulated cAMP levels", "setting": "[1]", "result": "unsuccessful"}]}
{"compound": "Nc1nc2c(ncn2[C@@H]2O[C@H](COP(=O)(O)OP(=O)(O)OP(=O)(O)O)[C@@H](O)[C@H]2O)c(=O)[nH]1", "note": "[GTP]", "values": [{"measurement": "inhibition of labeling of somatostatin receptor proteins", "setting": "[4]", "result": "sensitive to inhibition"}]}
{"compound": "somatostatin-28: bioactive form of somatostatin derived via tissue-specific proteolytic processing of prosomatostatin (Bachem)", "values": [{"measurement": "binding to 58 to 60-kDa receptor protein", "setting": "[3]", "result": "high affinity and specificity"}, {"measurement": "inhibition of secretion", "setting": "[5]", "result": "more specific inhibitor of growth hormone, insulin and pancreatic exocrine secretion"}]}
{"compound": "NC(=O)CC[C@@H]1NC(=O)[C@H](Cc2ccccc2)NC(=O)[C@H](Cc2ccc(O)cc2)NC(=O)[C@@H](N)CSSC[C@@H](C(=O)N2CCC[C@H]2C(=O)N[C@@H](CCCN=C(N)N)C(=O)NCC(N)=O)NC(=O)[C@H](CC(N)=O)NC1=O", "note": "[vasopressin]", "values": [{"measurement": "identification as ligand for hGPR81 by Ca^2+ efflux", "setting": "[2]", "result": "unsuccessful"}]}
{"compound": "angiotensin II: peptide known to regulate hormone secretion from pancreatic islets (DRVYIHPF)", "values": [{"measurement": "identification as ligand for hGPR81 by Ca^2+ efflux", "setting": "[2]", "result": "unsuccessful"}]}
{"compound": "glucagon-like peptide 1-(7-36 amide)", "values": [{"measurement": "identification as ligand for hGPR81 by changes in basal or stimulated cAMP levels", "setting": "[1]", "result": "unsuccessful"}]}
